Data on seven sequences can be found in patent US11878053B2, “Vaccine compositions comprising tryptophan 2,3-dioxygenase or fragments thereof” (IO Biotech ApS, priority 2014, dated 2024).

Assay [1] relates to peripheral blood mononuclear cells (PBMC). As to the kind of experiment: IFNγ ELISPOT assay with HLA-A2 restricted TDO peptides. Type of assay: cell-based, human. The settings on record: for TDO responses shown by ELISPOT vs control peptide, DFR method: 3*10^5 cells/well, control peptide HIVpol463-476, examples; for IFNγ producing T-cell in response to the peptide: PBMC from six cancer patients, after one round of in vitro stimulation; for ex vivo IFNγ ELISPOT response: directly ex vivo, PBMC from different cancer patients, 9*10^5 cells/well.

The next assay deals with T1, HLA-A2 (Homo sapiens, UniProt P04439, D140Y/D185E/D98H/E176V/E277Q/G131W/G231S/I119V/I121R/I166T/I218V/N151K/N90K/P208A/P217A/Q86G/Q94H/R138H/R169H).
T1 construct: made in house; host or cells: E. coli
The note with it: positive control peptides, well described; cited from earlier work.

Assay [2] concerns TDO-specific CD8+ T cells. Put plainly: Tetramer staining (flow cytometry) of TDO-specific CD8+ T cells. Type of assay: cell-based, human. The note with it: PBMC from a cancer patient repeatedly stimulated with autologous DC loaded with the peptide (5- or 4-times). As to the method:
DC were generated by adherence of PBMCs to the plastic surface of a well for one hour in RPMI 1640 (Gibco) before removal of non-adherent cells. The adherent cells were treated with 1000 U/ml GM-CSF (PeproTech, London, UK) and 250 U/ml IL-4 (Peprotech) in X-vivo (Lonza, Copenhagen, Denmark) supplied with 5% human AB serum (Sigma-Aldrich) and placed in a 37° C., 5% CO2 and humidified environment. On day six, maturation cocktail consisting of 1000 U/ml of each TNFα, IL-1P and IL-6 and 1 μg/ml PGE2 (Peprotech) was added to the cells. On day eight, mature DCs were harvested, loaded with 100 μM TDO peptide in X-vivo 15 (Lonza) for four hours in the incubator. After washing, peptide-loaded DCs were mixed with autologous PBLs in X-vivo 15 (Lonza) supplied with 5% human AB serum (Sigma-Aldrich). […] Cultures were stimulated this way twice seven days apart. Further stimulations were performed using autologous, irradiated (25Gy) PBLs loaded with 100 μM TDO peptide. The day after stimulation with PBLs the cultures were supplied with IL-2 (Proleukin; Novartis, Copenhagen, Denmark) to a final concentration of 40 U/ml. Peptide loaded MHC tetramers were […] with 2.5 μl of each phycoerytrhin (PE). […] The stainings were performed in 50 μl PBS (Lonza) supplied with 2% FCS (Gibco) for 15 minutes in the incubator. […]
(In general: Flow cytometry measures light scatter and fluorescence of single cells or particles in a stream.)

The next assay has as its system T2 cells. Put plainly: 51Cr-release cytotoxicity assay, peptide-pulsed T2 cells. Type of assay: cell-based. The note with it: short peptides added immediately before the assay, long peptides loaded overnight. The method, then: Assessment of the cytotoxic capability of the generated T-cell lines was evaluated using a conventional chromium release assay as described. Briefly, target tumor cell lines were labeled with 100 μCi ^51Cr (Perkin Elmer, Skovlunde, Denmark) in 100 μl RPMI 1640 (Gibco) supplied with 10% FCS (Gibco) for one hour at 37° C. After washing of target cells, they were incubated with effector cells at different effector:target (E:T) ratios for four hours in the incubator. Subsequently, the amount of radioactivity in the supernatant was measured using a gamma cell counter (Perkin Elmer Wallac Wizard 1470 Automatic gamma counter).

A further assay relates to CD4+ T cells in PBMC. As to the kind of experiment: Cytokine ELISPOT (IFNγ, TNFα, IL-10, IL-17A) with long TDO peptides. Type of assay: cell-based, human. The note with it: for Peptide-specific CD4 T-cell responses: ELISPOT, cancer patients and healthy donors; for IFNγ producing CD4+ T cells, cancer patients vs healthy donors: IFNγ ELISPOT; for IL-10 production in response to peptide stimulation: IL-10 ELISPOT; for IL-17 production in response to peptide stimulation: IL-17 ELISPOT; for cells producing TNFα in response to peptide, cancer patients vs healthy donors: TNFα ELISPOT.

As for “DLFNLSTYL (Peptide fragment of human TDO) [TDO364-372, Polypeptide fragment of human TDO]”, in assay [1], the “TDO responses shown by ELISPOT vs control peptide, DFR method” value was “statistically significant” and the “IFNγ producing T-cell in response to the peptide” value (shortened to “IFNγ producing T-cell in response”) is recorded as “presence of IFNγ producing T-cell”.
As to ILKEPVHGV [HIVpol468-476], the “affinity towards HLA-A2” value on HLA-A2 is “high affinity”.
For the sequence “KLLVQQFSIL (Peptide fragment of human TDO) [TDO123-132, Polypeptide fragment of human TDO]”, in assay [1], the “TDO responses shown by ELISPOT vs control peptide, DFR method” value was “statistically significant”; the “IFNγ producing T-cell in response” value is “presence of IFNγ producing T-cell”; the “ex vivo IFNγ ELISPOT response” value is listed as “detectable directly ex vivo”. For the same sequence, the “frequency of TDO-specific CD8+ T cells by two color tetramer staining” value in assay [2] is given as “dramatically increased”. Moreover, the “lysis of T2 cells pulsed with the peptide by TDO123-132 specific cells” value (“lysis of T2 cells pulsed” for short) with T2 cells was “lysed”.
In the same order, the values of “QLLTSLMDI (Peptide fragment of human TDO) [TDO309-317, Polypeptide fragment of human TDO]” are “statistically significant”, “presence of IFNγ producing T-cell”, “detectable directly ex vivo”, “dramatically increased” and “not”.
Regarding “RFQVPFQLLTSLMDIDSLMT (Peptide fragment of human TDO) [TDO303-322, long (20 amino acids) peptide comprising TDO309-317]”, in the assay with T2 cells, the “lysis of T2 cells pulsed” value is “not”. Also, in the assay with CD4+ T cells in PBMC, the “Peptide-specific CD4 T-cell responses” value is “present in both cancer patients and healthy donors”; the “IFNγ producing CD4+ T cells, cancer patients vs healthy donors” value is “no difference”; the “IL-10 production in response to peptide stimulation” value was “restricted to cancer patients”; the “IL-17 production in response to peptide stimulation” value is “restricted to cancer patients”. Also, the “cells producing TNFα in response to peptide, cancer patients vs healthy donors” value with CD4+ T cells in PBMC was “more frequent in healthy donors”.
Consider “TLLELVEAWL (Peptide fragment of human TDO) [TDO200-208, Polypeptide fragment of human TDO]”, for which, in assay [1], the “TDO responses shown by ELISPOT vs control peptide, DFR method” value is on record as “statistically significant”; the “IFNγ producing T-cell in response” value is listed as “presence of IFNγ producing T-cell”; the “ex vivo IFNγ ELISPOT response” value is recorded as “detectable directly ex vivo”.
Regarding “VSVILKLLVQQFSILETMTA (Peptide fragment of human TDO) [TDO118-137, long (20 amino acids) peptide comprising TDO123-132]”, the “lysis of T2 cells pulsed” value with T2 cells is recorded as “lysed”. In addition, in the assay with CD4+ T cells in PBMC, the “Peptide-specific CD4 T-cell responses” value was “present in both cancer patients and healthy donors”; the “IFNγ producing CD4+ T cells, cancer patients vs healthy donors” value is recorded as “no difference”; the “IL-10 production in response to peptide stimulation” value is given as “restricted to cancer patients”; the “IL-17 production in response to peptide stimulation” value was “restricted to cancer patients”. In addition, in the assay on CD4+ T cells in PBMC, the “cells producing TNFα in response to peptide, cancer patients vs healthy donors” value is “more frequent in healthy donors”.
